As a reminder, the Kd is the constant that tells how readily two partners part at equilibrium. Higher therefore signals lower affinity.

Drawing on ChEMBL document CHEMBL4049403, “Oligo-aspartic acid conjugates with benzo[c][2,6]naphthyridine-8-carboxylic acid scaffold as picomolar inhibitors of CK2” (Bioorg Med Chem, 2017), this text covers Kd for two molecules.

Structures are written as SMILES.

In this experiment the target is Albumin (Bos taurus, UniProt P02769). The experiment in a line: Binding affinity to bovine serum albumin by fluorescence anisotropy based method. Type of experiment: ADME. (Fluorescence polarisation rises when a labelled molecule tumbles more slowly, as on binding a larger partner.)
Chain of Albumin (P02769 whole entry): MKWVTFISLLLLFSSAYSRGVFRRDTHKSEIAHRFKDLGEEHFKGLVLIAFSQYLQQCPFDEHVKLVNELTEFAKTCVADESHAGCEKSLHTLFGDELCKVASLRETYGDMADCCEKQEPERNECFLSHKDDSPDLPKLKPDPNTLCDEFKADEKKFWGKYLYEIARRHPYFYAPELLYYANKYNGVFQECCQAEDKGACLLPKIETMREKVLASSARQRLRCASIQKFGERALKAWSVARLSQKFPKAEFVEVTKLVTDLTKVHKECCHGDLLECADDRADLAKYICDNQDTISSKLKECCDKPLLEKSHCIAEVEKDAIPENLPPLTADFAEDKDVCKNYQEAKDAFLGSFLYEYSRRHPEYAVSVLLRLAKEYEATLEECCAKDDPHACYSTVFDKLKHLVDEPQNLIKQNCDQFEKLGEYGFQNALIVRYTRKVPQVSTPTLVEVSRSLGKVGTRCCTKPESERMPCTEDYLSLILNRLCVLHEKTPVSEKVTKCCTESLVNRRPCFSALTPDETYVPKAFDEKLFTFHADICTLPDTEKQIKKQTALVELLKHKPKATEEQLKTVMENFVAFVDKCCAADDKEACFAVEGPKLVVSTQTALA

As for `CCN1c2cc(S(=O)(=O)O)ccc2\C(=C/C=C/C=C/C2=[N+](CC)c3ccc(S(=O)(=O)[O-])cc3C2(C)C)C1(C)CCCC(=O)NCCCC[C@H](NC(=O)[C@H](CC(=O)O)NC(=O)[C@H](CC(=O)O)NC(=O)[C@H](CC(=O)O)NC(=O)[C@H](CC(=O)O)NC(=O)[C@H](CC(=O)O)NC(=O)[C@H](CC(=O)O)NC(=O)CCCCCCCn1cnc2c(Br)c(Br)c(Br)c(Br)c21)C(=O)O` (some centres not stated), the affinity, expressed as Kd, was 1700 nM. With `CCN1c2cc(S(=O)(=O)O)ccc2\C(=C/C=C/C=C/C2=[N+](CC)c3ccc(S(=O)(=O)[O-])cc3C2(C)C)C1(C)CCCC(=O)NCCCC[C@H](NC(=O)CCCCCCCCOc1nc2cc(C(=O)O)ccc2c2cnccc12)C(=O)N[C@@H](CC(=O)O)C(=O)N[C@@H](CC(=O)O)C(=O)N[C@@H](CC(=O)O)C(=O)N[C@@H](CC(=O)O)C(=O)O` (some centres not stated), the Kd was over 50000 nM.
